Structures are written as SMILES. Where two headings read alike, the source gives them in different places. Some results are limits rather than exact numbers.

Assay [1] deals with CRAF (Homo sapiens, UniProt P04049). Nature of the assay: Kd for RAF kinases: CRAF. It counts as binding.
Assay [2] deals with BRAF (Homo sapiens, UniProt P15056). Nature of the assay: Kd for RAF kinases: BRAF. Type of assay: binding.
For assay [3], the system named is ERK 1,2 phosphorylation in A375 cells expressing V600E mutated BRAF. The assay is described as follows: HTRF assay for P-ERK determination in A375 cells (BRAF inhibition). Type of assay: cell-based. The following applies: Homo sapiens, A-375, 1 h, read-out: pERK IC50 A375. An excerpt:
DMEM no-phenol red medium supplemented with L-glutamine was purchased from (Thermo Fisher Scientific). Fetal bovine serum (FBS) was purchased from VWR. Advanced ERK phospho-T202/Y204 kit-10,000 tests was purchased from Cisbio cat #64AERPEH. A375 and HCT116 cells were originally obtained from ATCC and banked by the Roche repository.
A375 is a cellular cancer model expressing V600E mutated BRAF and HCT116 a cellular cancer model expressing WT BRAF. […] ERK 1,2 phosphorylation (terminal member of the phosphorylation cascade of the MAPK pathway) is hereafter reported as main readout for the activation status of the MAPK pathway. Prior to the assay, A375 and HCT116 cell lines are maintained in DMEM no-phenol red medium supplemented with 10% fetal bovine serum (FBS). […] Briefly, 8000 cells/well in 12 μl media/well are plated in the 384-well plate and left overnight in the incubator (at 37° C. with 5% CO2-humidified atmosphere), the following day the plate is treated in duplicate with test compounds, dabrafenib and PLX8394 (the latter two as controls) at the following final drug concentrations: 10 μM-3 μM-1 μM-0.3 μM-0.1 μM-0.03 μM-0.01 μM-0.003 μM-0.001 μM, all wells are subjected to DMSO normalization and drug incubation occurs for 1 hour. Then, 4 μl of a 4× lysis buffer supplied with the kit are added to the wells, the plate is then centrifuged for 30 second (300 rcf) and incubated on a plate shaker for 1 h at RT.
(§1) At the end of the incubation 4 μL/well of advanced P-ERK antibody solution (prepared according to manufacturer's instruction) followed by 4 μL/well of criptate P-ERK antibody solution (prepared according to manufacturer's instruction) (Cisbio cat #64AERPEH) are added to test wells.
(§2) In order to allow proper data normalization control wells non drug treated reported in the following table are always included in each plate (according to manufacturer's instruction):
(§3) The plate is then centrifuged at 300 rcf for 30 second, sealed to prevent evaporation and incubated overnight in the dark at room temperature.
(§4) The obtained fluorescence values are processed according to the formula Ratio=Signal (620 nm)/Signal (625 nm)*10000 then the average of the ratio on the blank is subtracted to all values.
Data are normalized in the case of A375 cells (BRAF inhibition) considering the average of the ratio (blank subtracted) derived by DMSO only treated cells as 100% and by considering the average of the ratio (blank subtracted) derived by 10 uM dabrafenib treated cells as 0%. Mean of the normalized points are fitted with sigmoidal curve and IC50 determined.
Background: In TR-FRET formats the signal depends on donor and acceptor labels being close together.

Assay [4] deals with ERK 1,2 phosphorylation in HCT116 cells expressing WT BRAF. The assay is described as follows: HTRF assay for P-ERK determination in HCT116 cells (paradoxical BRAF activation). As to conditions: for Emax: Homo sapiens, HCT-116, read-out: Percentage of maximum paradox inducing effect from dabrafenib; for EC50: read-out: P-ERK EC50 conc. at which the compound induces p-ERK activation of 50% of that induced by dabrafenib (Positive control paradox inducer) HCT-116, HCT-116 cells, 1 hour drug incubation, not applicable = activation does not reach 50% of dabrafenib maximum. Type of assay: cell-based.
Text: DMEM no-phenol red medium supplemented with L-glutamine was purchased from (Thermo Fisher Scientific). Fetal bovine serum (FBS) was purchased from VWR. Advanced ERK phospho-T202/Y204 kit-10,000 tests was purchased from Cisbio cat #64AERPEH. A375 and HCT116 cells were originally obtained from ATCC and banked by the Roche repository. 384-well microplates were purchased from Greiner Bio-One, 384-well, (With Lid, HiBase, Low volume cat 784-080).
A375 is a cellular cancer model expressing V600E mutated BRAF and HCT116 a cellular cancer model expressing WT BRAF. First generation BRAF inhibitors such as e.g. dabrafenib induce a paradox effect on tumour cells in that they inhibit the growth of V600E mutated BRAF cells (such as e.g. A375), while they activate growth in WT BRAF cells (such as e.g. HCT 116). ERK 1,2 phosphorylation (terminal member of the phosphorylation cascade of the MAPK pathway) is hereafter reported as main readout for the activation status of the MAPK pathway. Prior to the assay, A375 and HCT116 cell lines are maintained in DMEM no-phenol red medium supplemented with 10% fetal bovine serum (FBS). Following compound treatment, P-ERK levels are determined by measuring FRET fluorescence signal induced by selective binding of 2 antibodies provided in the mentioned kit (Cisbio cat #64AERPEH) on ERK protein when phosphorylated at Thr202/Tyr204. Briefly, 8000 cells/well in 12 μl media/well are plated in the 384-well plate and left overnight in the incubator (at 37° C. with 5% CO2-humidified atmosphere), the following day the plate is treated in duplicate with test compounds, dabrafenib and PLX8394 (the latter two as controls) at the following final drug concentrations: 10 μM-3 μM-1 μM-0.3 μM-0.1 μM-0.03 μM-0.01 μM-0.003 μM-0.001 μM, all wells are subjected to DMSO normalization and drug incubation occurs for 1 hour. Then, 4 μl of a 4× lysis buffer supplied with the kit are added to the wells, the plate is then centrifuged for 30 second (300 rcf) and incubated on a plate shaker for 1 h at RT.
as §1, §2, §3
The plate is then analyzed and fluorescence emission value collected through a Pherastast FSX (BMG Labtech) apparatus at […].
as §4
Data are normalized in the case of HCT116 cells (BRAF activation) considering the average of the ratio (blank subtracted) derived by DMSO only treated cells as 0% and by considering the average of the ratio (blank subtracted) derived by dabrafenib treated cells at the concentration which provides the highest signal as 100%. Individual points are fitted with either sigmoidal or bell shape curves, and the percentage of activation compared to maximum dabrafenib-mediated activation is determined. The EC50 is the concentration at which activation equal to 50% of the maximum achieved by dabrafenib is obtained.
The Percentage of Maximum paradox inducing effect from dabrafenib is determined by evaluating the percentage at which the test compound induce its maximum P-ERK signal as percentage of the highest signal produced by dabrafenib within the dose range tested.

For assay [5], the target named is BRAF (V600E) (Homo sapiens, UniProt P15056, V600E). The assay is described as follows: Kd for RAF kinases: BRAF (V600E). Type of assay: binding.
BRAF (V600E), sequence (P15056 whole entry V600E): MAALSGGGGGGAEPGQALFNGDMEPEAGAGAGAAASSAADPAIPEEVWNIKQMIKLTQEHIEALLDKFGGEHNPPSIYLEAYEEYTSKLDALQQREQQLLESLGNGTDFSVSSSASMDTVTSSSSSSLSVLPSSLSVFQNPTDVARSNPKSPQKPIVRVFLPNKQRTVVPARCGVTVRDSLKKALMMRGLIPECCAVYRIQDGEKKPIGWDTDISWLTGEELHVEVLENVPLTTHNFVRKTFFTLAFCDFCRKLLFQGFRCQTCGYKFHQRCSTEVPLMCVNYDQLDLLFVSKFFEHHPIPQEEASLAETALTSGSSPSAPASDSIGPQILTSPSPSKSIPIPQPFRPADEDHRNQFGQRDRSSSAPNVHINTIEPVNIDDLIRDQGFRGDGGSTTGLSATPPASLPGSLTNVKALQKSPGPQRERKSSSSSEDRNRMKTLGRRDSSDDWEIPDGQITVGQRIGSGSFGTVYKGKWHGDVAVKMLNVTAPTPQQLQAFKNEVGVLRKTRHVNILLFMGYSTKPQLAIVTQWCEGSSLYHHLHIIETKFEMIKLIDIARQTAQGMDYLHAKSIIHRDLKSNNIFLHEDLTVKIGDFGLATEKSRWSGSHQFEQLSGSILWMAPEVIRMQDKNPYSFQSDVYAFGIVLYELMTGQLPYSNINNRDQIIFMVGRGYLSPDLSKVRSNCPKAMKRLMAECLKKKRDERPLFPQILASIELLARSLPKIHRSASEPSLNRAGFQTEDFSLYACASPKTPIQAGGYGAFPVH

CRAF, sequence (P04049 whole entry): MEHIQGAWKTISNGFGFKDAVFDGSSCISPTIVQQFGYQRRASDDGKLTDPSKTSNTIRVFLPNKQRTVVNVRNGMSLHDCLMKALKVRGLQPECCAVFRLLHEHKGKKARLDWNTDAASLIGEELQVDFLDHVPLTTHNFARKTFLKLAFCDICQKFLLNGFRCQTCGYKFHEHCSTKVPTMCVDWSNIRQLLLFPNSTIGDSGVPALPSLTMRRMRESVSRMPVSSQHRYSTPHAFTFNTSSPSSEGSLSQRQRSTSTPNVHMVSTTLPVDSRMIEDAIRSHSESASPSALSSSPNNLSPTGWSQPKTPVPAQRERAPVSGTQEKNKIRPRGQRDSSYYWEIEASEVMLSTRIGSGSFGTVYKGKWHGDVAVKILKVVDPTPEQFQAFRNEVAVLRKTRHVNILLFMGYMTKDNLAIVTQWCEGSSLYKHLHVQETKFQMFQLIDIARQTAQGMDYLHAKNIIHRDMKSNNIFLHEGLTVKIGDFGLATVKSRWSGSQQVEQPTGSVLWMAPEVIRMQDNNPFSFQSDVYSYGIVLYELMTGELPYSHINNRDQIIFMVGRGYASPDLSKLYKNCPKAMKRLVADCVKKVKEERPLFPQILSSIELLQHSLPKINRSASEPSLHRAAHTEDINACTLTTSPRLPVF
BRAF, sequence (P15056 whole entry): as the sequence (P15056 whole entry V600E) above, with E600V counted along it

Usually Kd stands for the free concentration of one partner at which half of the binding sites on the other are occupied at equilibrium, for simple one-to-one binding. The IC50 is the concentration at which inhibition is half-maximal. Consider `CCC(C)S(=O)(=O)Nc1cccc(Oc2ccc3ncn(C)c(=O)c3c2)c1C#N` (racemic) [Example 10, (RS)—N-[2-cyano-3-(3-methyl-4-oxo-quinazolin-6-yl)oxy-phenyl]butane-2-sulfonamide], for which the figures for the Kd in assay [1], in assay [2] and in assay [5] were 6.8 nM, 3.9 nM and 14.4 nM, respectively. For the same compound, the IC50 in assay [3] is 8.8 nM. Further, the Emax in assay [4] was found to be 21%.
One may read the EC50 as the concentration needed to bring the measured effect to its halfway point. As for `CCN(C)S(=O)(=O)Nc1ccc(F)c(Oc2ccc3ncn(C)c(=O)c3c2)c1C#N` [Example 1, 6-[2-cyano-3-[[ethyl(methyl)sulfamoyl]amino]-6-fluoro-phenoxy]-3-methyl-4-oxo-quinazoline], the results for the Kd in assay [1], in assay [2] (read-out: Kd BRAF) and in assay [5] (read-out: Kd BRAF (V600E)) were 6.3 nM, 1.6 nM and 3.4 nM, respectively. Further, the IC50 in assay [3] was determined as 5.5 nM. Also, in assay [4], the Emax came to 56%. Further, the concentration giving a half-maximal response (EC50) in assay [4] was greater than 1000 nM.
On to `CCN(C)S(=O)(=O)Nc1ccc(Cl)c(Oc2ccc3ncn(C)c(=O)c3c2)c1C#N` [Example 2, 6-[6-chloro-2-cyano-3-[[ethyl(methyl)sulfamoyl]amino]phenoxy]-3-methyl-4-oxo-quinazoline], for which the Kd in assay [1] worked out at 5.4 nM; in assay [2], 30.4 nM; in assay [5] it was 36.8 nM. Further, in assay [3], the half-maximal inhibitory concentration (IC50) amounted to 28.6 nM. In addition, the Emax in assay [4] amounted to 69%. For the same compound, the EC50 in assay [4] was greater than 1000 nM.
With `Cn1cnc2ccc(Oc3c(Cl)ccc(NS(=O)(=O)N4CC[C@@H](F)C4)c3C#N)cc2c1=O` [Example 3, (3R)—N-[4-chloro-2-cyano-3-(3-methyl-4-oxo-quinazolin-6-yl)oxy-phenyl]-3-fluoro-pyrrolidine-1-sulfonamide], the Kd worked out at 9.4 nM in assay [1], 10 nM in assay [2] and 6.3 nM in assay [5]. The IC50 in assay [3] amounted to 14.8 nM. The Emax in assay [4] was 61%. Besides, in assay [4], the EC50 is greater than 1000 nM.
On to `Cn1cnc2ccc(Oc3c(Cl)ccc(NS(=O)(=O)N4CCCC4)c3C#N)cc2c1=O` [Example 4, N-[4-chloro-2-cyano-3-(3-methyl-4-oxo-quinazolin-6-yl)oxy-phenyl]pyrrolidine-1-sulfonamide], for which the dissociation constant Kd in assay [1] worked out at 1.6 nM; in assay [2], 2.1 nM; in assay [5], 4.6 nM. The IC50 in assay [3] was determined as 34.3 nM. The Emax in assay [4] was found to be 65%. For the same compound, in assay [4], the half-maximal effective concentration (EC50) was determined as 714 nM.
For `CCN(C)S(=O)(=O)Nc1cccc(Oc2ccc3ncn(C)c(=O)c3c2)c1C#N` [Example 5, 6-[2-cyano-3-[[ethyl(methyl)sulfamoyl]amino]phenoxy]-3-methyl-4-oxo-quinazoline], the Kd was determined as 7.2 nM in assay [1], 10.6 nM in assay [2] and 32.3 nM in assay [5]. Besides, in assay [3], the IC50 was 52.5 nM. Moreover, the Emax in assay [4] is 61%. Besides, the concentration for a half-maximal effect (EC50) in assay [4] is greater than 1000 nM.
Take `Cn1cnc2ccc(Oc3cccc(NS(=O)(=O)N4CCCC4)c3C#N)cc2c1=O` [Example 6, N-[2-cyano-3-(3-methyl-4-oxo-quinazolin-6-yl)oxy-phenyl]pyrrolidine-1-sulfonamide]: the results for the equilibrium dissociation constant (Kd) in assay [1], in assay [2] and in assay [5] were 1.1 nM, 1.6 nM and 2.6 nM, respectively. Moreover, the IC50 in assay [3] amounted to 17.1 nM. In assay [4], the Emax worked out at 59%. Further, in assay [4], the EC50 worked out at 648 nM.
For the compound `Cn1cnc2ccc(Oc3cccc(NS(=O)(=O)N4CC[C@@H](F)C4)c3C#N)cc2c1=O` [Example 7, (3R)—N-[2-cyano-3-(3-methyl-4-oxo-quinazolin-6-yl)oxy-phenyl]-3-fluoro-pyrrolidine-1-sulfonamide], the Kd in assay [1] was found to be 8.9 nM; in assay [2], 8.9 nM; in assay [5], 4.5 nM. In addition, the concentration for half-maximal inhibition (IC50) in assay [3] worked out at 26.2 nM. The Emax in assay [4] worked out at 32%.
On to `Cn1cnc2ccc(Oc3cccc(NS(=O)(=O)C4CCCC4)c3C#N)cc2c1=O` [Example 8, N-[2-cyano-3-(3-methyl-4-oxo-quinazolin-6-yl)oxy-phenyl]cyclopentanesulfonamide], for which the Kd in assay [1] was 1.8 nM; in assay [2], 3.3 nM; in assay [5], 7 nM. Further, in assay [3], the IC50 stood at 5.3 nM. The Emax in assay [4] was found to be 63%. Further, in assay [4], the concentration for a half-maximal effect (EC50) stood at 412 nM.
For the compound `Cn1cnc2ccc(Oc3cccc(NS(=O)(=O)C4CCCCC4)c3C#N)cc2c1=O` [Example 9, N-[2-cyano-3-(3-methyl-4-oxo-quinazolin-6-yl)oxy-phenyl]cyclohexanesulfonamide], the dissociation constant (Kd) in assay [1] is 0.8 nM; in assay [2] (read-out: Kd BRAF), 2.4 nM; in assay [5] (read-out: Kd BRAF (V600E)) it was 4 nM. For the same compound, in assay [3], the IC50 worked out at 13.9 nM. For the same compound, the Emax in assay [4] came to 44%.
With `CCN(C)S(=O)(=O)Nc1cccc(Nc2ccc3ncn(C)c(=O)c3c2)c1C#N` [Example 11, 6-[2-cyano-3-[[ethyl(methyl)sulfamoyl]amino]anilino]-3-methyl-4-oxo-quinazoline], the dissociation constant (Kd) in assay [1] is 52.3 nM; in assay [2] (read-out: Kd BRAF) it was 11.6 nM; in assay [5] (read-out: Kd BRAF (V600E)), 26.5 nM. For the same compound, the IC50 in assay [3] turned out to be 19.7 nM. For the same compound, in assay [4], the Emax came out at 61%. Besides, the EC50 in assay [4] was greater than 1000 nM.
As to `Cn1cnc2ccc(Nc3cccc(NS(=O)(=O)N4CC[C@@H](F)C4)c3C#N)cc2c1=O` [Example 12, (3R)—N-[2-cyano-3-[(3-methyl-4-oxo-quinazolin-6-yl)amino]phenyl]-3-fluoro-pyrrolidine-1-sulfonamide], the results for the dissociation constant Kd in assay [1], in assay [2] and in assay [5] were 9.8 nM, 2 nM and 7.5 nM, respectively. Further, in assay [3], the IC50 was found to be 9.2 nM. For the same compound, the Emax in assay [4] worked out at 49%.
As for `CCN(C)S(=O)(=O)Nc1ccc(Cl)c(Nc2ccc3ncn(C)c(=O)c3c2)c1C#N` [Example 13, 6-[6-chloro-2-cyano-3-[[ethyl(methyl)sulfamoyl]amino]anilino]-3-methyl-4-oxo-quinazoline], the dissociation constant (Kd) in assay [1] is 6.8 nM; in assay [2] it was 4.3 nM; in assay [5] it was 10 nM. Also, in assay [3], the half-inhibitory concentration (IC50) came to 14.8 nM. Further, in assay [4], the Emax is 67%. The 50% effective concentration (EC50) in assay [4] is greater than 1000 nM.

The values are drawn from patent publication US20220298145A1, “BRAF INHIBITORS AS PARADOX BREAKERS” (Hoffmann-La Roche Inc., priority 2019, published 2022).
